Results as given in publication PMC5717651, “Biotransformation of labdane and halimane diterpenoids by two filamentous fungi strains” (Royal Society Open Science, 2017).
Where two headings read alike, the source gives them in different places.

Legend:
[1] = target: T1, human recombinant acetylcholinesterase (Hr-AChE) (Homo sapiens, UniProt P22303); test: biochemical; details: for inhibitory activity on Hr-AChE (in words): authors' verbal rating; for inhibition at 100 µM: pH 8, at 100 µM compound, 70 µM acetylcholine, ammonium acetate 15.0 mM, pH 8.0, n = 3, read-out: % inhibition ± s.e.m. ICER-AChEhr
T1 construct: purchased Sigma-Aldrich C1682
T1 sequence (P22303 32-614): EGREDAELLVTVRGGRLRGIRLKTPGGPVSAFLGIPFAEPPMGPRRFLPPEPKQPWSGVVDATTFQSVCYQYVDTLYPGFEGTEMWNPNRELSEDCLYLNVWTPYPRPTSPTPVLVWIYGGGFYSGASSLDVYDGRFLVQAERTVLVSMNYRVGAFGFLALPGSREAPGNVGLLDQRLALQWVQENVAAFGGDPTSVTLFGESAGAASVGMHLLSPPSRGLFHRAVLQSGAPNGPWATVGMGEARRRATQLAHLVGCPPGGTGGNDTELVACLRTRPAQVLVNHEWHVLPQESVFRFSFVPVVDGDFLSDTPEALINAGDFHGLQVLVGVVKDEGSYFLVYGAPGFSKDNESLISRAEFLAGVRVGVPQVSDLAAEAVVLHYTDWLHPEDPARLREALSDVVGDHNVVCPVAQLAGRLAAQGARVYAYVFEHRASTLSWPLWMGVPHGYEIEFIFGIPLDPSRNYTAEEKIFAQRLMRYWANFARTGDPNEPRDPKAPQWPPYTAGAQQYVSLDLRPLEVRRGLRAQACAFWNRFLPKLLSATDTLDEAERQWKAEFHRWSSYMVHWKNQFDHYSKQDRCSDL
Procedure: (§1) Hr-AChE-ICER and Hu-BChE-ICER were prepared by covalent enzyme immobilization onto fused silica capillary tubing (30 cm × 0.375 mm × 100 µm I.D.) according to a previously described procedure. Resulting ICERs were connected to an on-flow LC-IT-MS/MS system (EMU FAPESP—Proc. PROEM 2014/50299-5) as biochromatography columns.
(§2) LC system (Shimadzu, Kyoto, Japan) consisted of two Nexera LC-20ADXR pumps, an SIL 20A auto sampler, with a 50 µl loop, a DGU-20A5 degasser and a CBM-20 interface. LC equipment was connected to an AmaZon Speed Ion Trap Mass Spectrometer equipped with an ESI source, operating in positive ion mode. Data were acquired using software Data Analysis 4.1 (Bruker Daltonics). LC analyses were performed at 25°C. Enzymatic reactions were monitored by direct quantification of choline (Ch, [M + H]^+ m/z 104), the hydrolysis product of ACh.
(§3) Samples were solubilized in methanol to provide a stock solution of 1.00 mM for each compound. Assay samples (100 µl) were prepared using 10 µl of stock solution (100 µM final concentration), 20 µl of acetylcholine solution (70 µM final concentration) and 70 µl of ammonium acetate solution (15.0 mM, pH 8.0). Solutions were prepared in duplicate and 20 µl aliquots were used for injection. Negative (absence of ACh) and positive (presence of ACh and absence of ligand) controls were analysed between each AChEI sample.

[2] = target: T2, human serum butyrylcholinesterase (Hu-BChE) (Homo sapiens, UniProt P06276); test: On-flow Hu-BChE-ICER-IT-MS/MS screening assay (hydrolysis of acetylcholine, choline quantified); assay type: biochemical; details: for inhibitory activity on Hu-BChE (in words): authors' verbal rating
T2 construct: purchased Sigma-Aldrich B4186; host or cells: human serum
T2 sequence (P06276 29-602): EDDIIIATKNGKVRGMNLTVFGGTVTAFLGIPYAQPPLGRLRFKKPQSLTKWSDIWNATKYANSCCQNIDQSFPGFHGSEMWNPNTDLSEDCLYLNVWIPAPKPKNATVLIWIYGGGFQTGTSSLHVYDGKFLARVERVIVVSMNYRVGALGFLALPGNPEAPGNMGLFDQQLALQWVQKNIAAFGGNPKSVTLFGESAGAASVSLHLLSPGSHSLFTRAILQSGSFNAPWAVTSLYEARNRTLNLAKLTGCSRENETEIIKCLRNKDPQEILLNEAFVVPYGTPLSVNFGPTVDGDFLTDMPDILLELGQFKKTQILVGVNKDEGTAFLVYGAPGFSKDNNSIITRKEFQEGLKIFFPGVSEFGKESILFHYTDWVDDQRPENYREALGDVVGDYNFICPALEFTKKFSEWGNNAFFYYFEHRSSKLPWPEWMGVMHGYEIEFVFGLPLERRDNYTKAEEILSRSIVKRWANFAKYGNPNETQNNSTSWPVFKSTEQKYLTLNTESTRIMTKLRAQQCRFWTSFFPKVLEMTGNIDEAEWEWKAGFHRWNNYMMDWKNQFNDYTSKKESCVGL
Procedure: as §1, §2, §3

[3] = immobilized Hr-AChE capillary reactor (ICER), read-out: IC50 AChEhr
[4] = at 100 µM compound, 70 µM acetylcholine, ammonium acetate 15.0 mM, pH 8.0, n = 3, read-out: % inhibition ± s.e.m. ICER-BChEhu

Row | Structure (SMILES) | inhibitory activity on Hr-AChE (in words) [1] | IC50 [1, 3] [µM] | inhibition at 100 µM [1] [%] | inhibition at 100 µM [2, 4] [%] | IC50 [1] [µM] | inhibitory activity on Hu-BChE (in words) [2] | inhibition at 100 µM ([2]; pH 8, read-out: % inhibition ± s.e.m. ICER-BChEhu) [%]
1 | C/C(=C\C(=O)O)CC[C@@H]1[C@@]2(C)CC[C@H](O)C(C)(C)[C@@H]2CC[C@@]1(C)O (relative stereo) [Compound 8, (+)-(3S*, 5S*, 8R*, 9R*, 10S*)-Lab-13-en-3β,8α-diol-15-oic acid] | weakly active | 95.7 ± 1.7 | ~50 | 13.3 ± 2.62 |  |  | 
2 | C/C(=C\C(=O)O)CC[C@@H]1[C@@]2(C)CCCC(C)(C)[C@@H]2CC[C@@]1(C)O [Compound 2, (+)-(5S, 8R, 9R, 10S)-Lab-13-en-8α-ol-15-oic acid] | weak inhibitory activity |  | 26.5 ± 3.1 | 13.3 ± 0.39 | > 100 | weak inhibitory activity | 
3 | C/C(=C\C(=O)O)CC[C@]1(C)C2=CCC[C@@](C)(CO)[C@H]2CC[C@H]1C [Compound 1, (+)-(4R, 5S, 8R, 9S)-18-Hydroxy-ent-halima-1(10),13-(E)-dien-15-oic acid] | weak inhibitory activity | > 100 | 24.96 ± 0.04 | 36.09 ± 0.28 |  | weak inhibitory activity | 
4 | C/C(=C\C(=O)O)CC[C@]1(C)C2=CCC[C@@](C)(C(=O)O)[C@H]2CC[C@H]1C [Compound 5, (+)-(4R, 5S, 8R, 9S)-18-Carboxy-ent-halima-1(10),13-(E)-dien-15-oic acid] | inactive | > 100 | ~50 | 8.17 ± 1.32 |  |  | 
5 | C/C(=C\C(=O)O)CC[C@H]1[C@](C)(O)[C@H](O)C[C@H]2C(C)(C)CCC[C@@]21C (relative stereo) [Compound 7, (-)-(5S*, 7R*, 8R*, 9R*, 10S*)-Lab-13-en-7α,8α-diol-15-oic acid] |  | > 100 | 4.71 ± 0.11 | 20.1 ± 1.73 |  |  | 
6 | C/C(=C\C(=O)O)CC[C@]1(C)C2=CC(=O)C[C@@](C)(CO)[C@H]2CC[C@H]1C [Compound 3, (+)-(4R, 5S, 8R, 9S)-2-Oxo-18-hydroxy-ent-halima-1(10),13-(E)-dien-15-oic acid] |  | > 100 | 30.13 ± 0.3 | 14.5 ± 2.47 |  |  | 
7 | C/C(=C\C(=O)O)CC[C@]1(C)C2=CCC[C@@](C)(C=O)[C@H]2CC[C@H]1C [Compound 6, (+)-(4R, 5S, 8R, 9S)-18-Formyl-ent-halima-1(10),13-(E)-dien-15-oic acid] |  | > 100 | 3.23 ± 1.7 | 25.07 ± 0.14 |  |  | 
8 | C/C(=C\C(=O)O)CC[C@]1(C)C2=CCCC(CO)(CO)[C@H]2CC[C@H]1C [Compound 4, (+)-(5S, 8R, 9S)-18,19-Dihydroxy-ent-halima-1(10),13-(E)-dien-15-oic acid] |  | > 100 | 39.4 ± 3.86 | 14.5 ± 2.42 |  |  | 
9 | COc1ccc2c3c1O[C@H]1C[C@@H](O)C=C[C@@]31CCN(C)C2 [Gal, Galanthamine, reference compound] |  |  |  |  |  |  | 75.8 ± 1.74
